{"source": "patent US20220081481A1", "about": "“USE OF AGENTS CAPABLE OF INDUCING LC3-ASSOCIATED PHAGOCYTOSIS FOR TREATING SUSTAINED INFLAMMATION IN PATIENTS SUFFERING FROM CHRONIC LIVER DISEASE” (INSERM (INSTITUT NATIONAL DE LA SANTÉ ET DE LA RECHERCHE …, priority 2019, published 2022)", "test_system": "PBMC from cirrhotic patients and healthy donors", "test": "Western blot of LC3-II lipidation in PBMC", "format": "cell-based, human", "details": "30 μM chloroquine diphosphate, data not shown", "description": "Peripheral blood mononuclear cells (PBMC) and monocyte isolation. PBMC were prepared from the blood of cirrhotic patients and healthy donors, using Ficoll density gradient centrifugation (Ficoll Paque™-plus, GE Healthcare, 17-1440-02), as previously described^43.\nCell treatment. Human monocytes, THP1-XBlue™-CD14 (Invivogen, Catalog #thpx-cd14sp) and THP1-FcγRIIA+−CD14+(kindly provided by Novimmune) monocytes were used. When indicated cells were exposed to either 30 μM chloroquine diphosphate (Sigma, C6628), 10 mM 3-Methyladenine (3-MA, Sigma, M9281-100 mg), 10 mM Diphenyleneiodonium chloride (DPI, Sigma, D2926-10 mg), or 10 mg/ml IVIg (Privigen, 100 mg/ml) for 4 hrs at 37° C., as indicated. We also used commercially synthetized Tat-conjugated peptides (30 μM, GeneCust, Dudelange): i) the Tat-p22phox N8 peptide corresponding to eight N-terminal amino acids (3-10) of p22phox that blocks the Rubicon-p22phox interaction^19; ii) its control mutant Tat-N8W9A peptide, in which one tryptophan residue is replaced by Alanine^19). In some experiments, cells were exposed to the preformed complex (10 μg/ml of mouse anti-hFcγRII mAb (clone AT-10, Santa Cruz, sc-13527) F(ab′)2 fragments+20 μg/ml goat anti-mouse anti-kappa F(ab′)2 fragments (Southern Biotech, 1052-01) or to 100 μg/ml of anti-hFcγRIIA mAb F(ab′)2 fragments (clone IV.3), purified as we previously described^26. […]"}
{"smiles": "CCN(CC)CCCC(C)Nc1ccnc2cc(Cl)ccc12", "note": "(centres unmarked) [chloroquine, chloroquine diphosphate]", "values": [{"measurement": "LC3-II lipidation", "setting": "PBMC from cirrhotic patients", "value": "further enhanced"}, {"measurement": "LC3-II lipidation", "setting": "cells from healthy donors", "value": "affected more marginally"}]}
